From US9259412B2, “Composition of the treatment of vascular diseases or KCa3.1 channel-mediated diseases comprising modafinil or derivatives thereof” (EWHA UNIVERSITY—INDUSTRY COLLABORATION FOUNDATION, priority 2011, dated 2016)
Read-outs that look alike come from different tables or passages of the source.

Assays:
KCa3.1 channel [1] = assay: Western blotting of KCa3.1 channel phosphorylation in NIH-3T3 cells; assay type: cell-based
Method: After the treatment, cells were washed once in ice-cold phosphate buffered saline (PBS) and lysed in protein extraction buffer containing protease inhibitor cocktail. Protein concentration in the supernatant was determined by Bradford protein assay. For Western blot analysis, 30 μg of protein was subjected to SDS-PAGE, and proteins were then transferred to a nitrocellulose membrane. Membranes were blocked for 1 hour with TBST (10 mM Tris-HCl, 150 mM NaCl, and 1% (v/v) Tween-20, pH 7.6) containing 5% bovine serum albumin (BSA) at room temperature. The blots were incubated for 3 hours with rabbit anti-P-PKA substrate antibody followed by incubation with horseradish peroxidase-conjugated secondary antibodies for 1 hour. Bands were visualized by chemiluminescence. Data collection and processing were performed using a luminescent image analyzer LAS-3000 and IMAGE GAUSE software (Fuji Film, Japan).

NIH-3T3 fibroblasts = assay: Measurement of intracellular cAMP in NIH-3T3 fibroblasts; assay type: cell-based; details: for intracellular cAMP concentration: NIH-3T3 cells
Method: Meanwhile, NIH-3T3 fibroblasts were used to verify the effect on KCa3.1 mediated diseases. NIH-3T3 fibroblasts (CRL-2795; American Type Culture Collection, VA, USA) were maintained in the following manner. Cells were cultivated as a monolayer in Dulbecco's Modified Eagle Medium (DMEM, Hyclone, Logan, Utah, USA) added with 10% fetal bovine serum (FBS), 100 units/ml penicillin, and 100 μg/ml streptomycin. All cells were maintained at 37° C. in humidified condition under 5% CO2. Media were changed twice weekly, and cultures were passaged at a dilution of 1:5 weekly. The medium was then removed and replaced with fresh medium, and the cells were maintained for the time periods indicated.
NIH-3T3 fibroblasts were incubated with modafinil for 3 minutes within incomplete media. The concentration of cAMP (adenosine 3′,5′-cyclic monophosphate) from lysate was determined in each sample using a Parameter cAMP assay kit (R&D systems) according to the manufacturer's instructions.

KCa3.1 channel [2] = target: T1, KCa3.1 channel (Mus musculus, UniProt O89109); assay: Whole-cell patch-clamp of KCa3.1 currents in NIH-3T3 fibroblasts; assay type: cell-based
T1 construct: cells which were not exposed to modafinil or forskolin were immunoblotted by anti-KCa3.1 antibody to confirm the presence of KCa3.1 channels; endogenous in cells; host or cells: NIH-3T3 fibroblasts
Method: (§1) Electrophysiological analysis was performed according to the methods reported by Nilius and the like [Nilius et al., 1993, Pflugers Arch., 424(3-4): 285-293]. The patch-clamp technique was used in the whole-cell and excised patch configurations at room temperature. Whole-cell currents were measured using ruptured patches. Currents were monitored using an appropriate amplifier (EPC-10, HEKA, Lambrecht, Germany). In the whole cell experiment, we applied a voltage ramp from −100 mV to +100 mV with a 10 sec interval (650 ms duration) or voltage steps from a holding potential of −60 mV to potentials ranging from −100 mV to +100 mV in 20 mV increments (1 sec duration) with a 5 sec interval. Currents were recorded at a sampling rate of 1-4 kHz. Inside-out voltage clamps were performed using glass electrodes of tip resistance of 8-10 MΩ. Data were filtered at 1 KHz and stored in a computer for analysis using standard software (Axoscope 9.0, Axon Instruments, Foster City, Calif., USA). For some experiments, channel activity was expressed as the product of the number of channels times open probability (NPo), where NPo=Σ[(open time×number of open channels)/Total time of record].
(§2) The standard external solution contains the following substance within NaOH solution of pH 7.4; 150 mM NaCl, 6 mM KCl, 1.5 mM CaCl2, 1 mM MgCl2, 10 mM HEPES, and 10 mM glucoses. The osmolarity of this solution, as determined by an osmometer (Fiske, Norwood, Mass., USA), was 320±5 mOsm. In the inside-out mode, the bath solution contains 150 mM KCl, 0.5 mM MgCl2, 10 mM HEPES within KOH solution of pH 7.2, and the pipette solution contains 150 mM NaCl, 6 mM KCl, 1 mM MgCl2, 10 mM HEPES, 10 mM glucoses, 5 mM EGTA within NaOH solution of pH 7.4. Free Ca2+ concentrations in the pipette or bath solutions were adjusted to 1 μM by adding appropriate amounts of Ca2+ (calculated using CaBuf software; G. Droogmans, Leuven, ftp://ftp.cc.kuleuven.ac.be/pub/droogmans/cabuf.zip) in the presence of 5 mM EGTA.
KCa3.1 currents were activated by adding 1-ethyl-2-benzimidazolinone (1-EBIO, 100 μM) to the external solution and loading 1 μM Ca2+ via patch pipette in whole-cell clamped NIH-3T3 fibroblasts.

[3] = test system: rat pulmonary arterial rings; assay: Contraction measurement on isolated rat pulmonary arterial rings; details: for effect on vascular smooth muscle contraction: norepinephrine (0.1 μM)-induced contraction of rat pulmonary artery; for IC50: Rattus norvegicus
Method: (§3) Experimental animals were used to examine the effect of modafinil on relaxation of contracted blood vessels. Five to six-month-old mice or rats were anaesthetized by an intraperitoneal injection of pentobarbital sodium (50 mg/kg, weight). The mouse thoracic aorta and rat pulmonary artery were dissected out and cut into rings of about 3 mm. Mechanical responses were recorded from the ring segments using a home-made myograph. Each ring was threaded with two strands of tungsten wire (120 μm in diameter). One wire was anchored in the organ bath chamber (1 ml) and the other was connected to a mechano-transducer (Grass, FT-03) mounted on a three dimensional manipulator. The muscle chamber was perfused at a flow rate of 2.5 ml/minute with oxygenated (95% O2/5% CO2) Krebs/Ringer bicarbonate solution with a peristaltic pump. The composition (unit: mM) of the Krebs solution was as follows: NaCl 118.3, KCl 4.7, MgCl2 1.2, KH2PO4 1.22, CaCl2 2.5, NaHCO3 25.0, glucose 11.1, pH 7.4. Endothelial cells were removed by gentle rubbing with a cotton ball and NO production in endothelial cells was inhibited by pretreating with NG-nitro-1-arginine methyl ester (l-NAME). Rings were pre-contracted with 0.1 μM norepinephrine or 30 mM K+.
Since increase in intracellular cAMP in vascular smooth muscle cells activates PKA and phosphorylates myosin light chain active enzyme to relax vascular smooth muscles, the present inventors examined whether modafinil relaxes vascular smooth muscles. Mouse aortic rings or rat pulmonary arterial rings were contracted by norepinephrine (0.1 μM). When the contraction reached a steady-state, modafinil was applied. With the application, the contracted mouse aortic ring (FIGS. 3A and 3B) or rat pulmonary arterial ring (FIGS. 3C and 3D) was relaxed in a concentration-dependent manner. […] When rat pulmonary artery was contracted by K+ (30 mM) of a high concentration, modafinil relaxed the contracted artery in a concentration-dependent manner (FIG. 3E). When the concentration-dependent reaction of rat pulmonary artery was fitted to Hill's equation, the IC50 of modafinil was determined to be 10.5±0.4 nM (FIG. 3F).

KCa3.1 channel [4] = target: T1, KCa3.1 channel; assay: Inside-out patch single channel recording of KCa3.1 channels in NIH-3T3 cells; assay type: cell-based
Method: as §1, §2
In inside-out patches, KCa3.1 channels were activated by clamping Ca2+ concentration of the bath solution to 1 μM and applying 1-EBIO. The holding potential was then changed from −70 to 50 mV (FIG. 7). The single channel currents were inhibited by TRAM-34. […] The present inventors then applied modafinil (30 or 100 nM) to the bath solution. […] The open probability was also not changed by modafinil (FIGS. 7A and 7B). A linear fit of the data between 50 to −70 mV yielded a slope conductance of 38.1 pS in the control group and 39.4 pS in the presence group of modafinil (FIG. 7C).

mouse aortic rings = assay: Contraction measurement on isolated mouse aortic rings; details: mouse aortic rings contracted by norepinephrine (0.1 μM), Hill's equation; read-out: IC50 of relaxation of contracted rings
Method: as §3, with “K+. […]” for “K+.”

[5] = test system: mouse aortic smooth muscle cells; assay: Measurement of intracellular cAMP in cultured mouse aortic smooth muscle cells; assay type: cell-based
Method: Single smooth muscle cells (SMCs) were used to examine the effect of modafinil on vascular diseases. Single smooth muscle cells were separated from an aorta of the mouse. Three to four-month-old mice of either gender were anaesthetized with pentobarbital sodium (50 mg/kg weight) and sacrificed by cervical dislocation. Thoracic aortas were dissected out in Ca2+-free external solution and dissociated by incubation in papain (1 mg/ml) for 5 min followed by incubation in collagenase (1.5 mg/ml), bovine serum albumin (BSA; 2 mg/ml) and dithiothreitol (1 mg/ml) for 10 to 20 min in Ca2+-free external solution at 37° C. Segments were then transferred to fresh Ca2+-free external solution, and single mouse SMCs were dispersed with gentle agitation using a glass pipette. Mouse aortic SMCs were cultivated in Dulbecco's Modified Eagle Medium (DMEM) containing 10% fetal bovine serum (FBS) plus 1% minimum essential amino acids (Life Technologies). Cell culture was maintained at 37° C. in fully humidified air with 5% CO2.
Cultured mouse aortic SMCs were incubated with modafinil for 3 minutes within incomplete media. The concentration of cAMP (adenosine 3″,5″-cyclic monophosphate) from lysate was determined in each sample using a Parameter cAMP assay kit (R&D Systems) according to the manufacturer's instructions.

[6] = currents activated by 1 μM Ca2+ and 1-EBIO 100 μM
[7] = modafinil 30 or 100 nM in bath solution

T1 sequence (O89109 whole entry): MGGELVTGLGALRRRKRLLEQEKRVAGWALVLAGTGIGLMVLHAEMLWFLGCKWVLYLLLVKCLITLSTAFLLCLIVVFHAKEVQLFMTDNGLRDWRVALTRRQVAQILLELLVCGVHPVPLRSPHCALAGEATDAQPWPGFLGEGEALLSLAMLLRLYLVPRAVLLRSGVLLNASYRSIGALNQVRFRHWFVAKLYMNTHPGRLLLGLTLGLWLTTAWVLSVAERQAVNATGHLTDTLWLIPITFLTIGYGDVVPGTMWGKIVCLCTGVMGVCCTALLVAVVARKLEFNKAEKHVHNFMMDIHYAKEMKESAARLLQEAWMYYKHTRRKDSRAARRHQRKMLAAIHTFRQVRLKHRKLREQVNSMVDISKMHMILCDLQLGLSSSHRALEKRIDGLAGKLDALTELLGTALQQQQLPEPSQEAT

O=S(=O)(NCCNC/C=C/c1ccc(Br)cc1)c1cccc2cnccc12 [H89]
effect on channel phosphorylation in the resting state and by forskolin (KCa3.1 channel [1]; NIH-3T3 cells pretreated with PKA inhibitor for 30 min): completely abolished

O=C(CSC(c1ccccc1)c1ccccc1)NCC1CCCO1 (centres unmarked) [M006, 2-(benzhydrylthio)-N-((tetrahydrofuran-2-yl)methyl)acetamide]
intracellular cAMP concentration (NIH-3T3 fibroblasts): increased the intracellular cAMP concentration in a concentration-dependent manner | effect on KCa3.1 currents (KCa3.1 channel [2]; [6]): inhibited | effect on vascular smooth muscle contraction [3]: relaxed

O=C(CSC(c1ccccc1)c1ccccc1)Nc1ccccc1 [M008, 2-(benzhydrylthio)-N-phenylacetamide]
intracellular cAMP concentration (NIH-3T3 fibroblasts): increased the intracellular cAMP concentration in a concentration-dependent manner | effect on KCa3.1 currents (KCa3.1 channel [2]; [6]): inhibited | effect on vascular smooth muscle contraction [3]: relaxed

CNC(=O)C[S+]([O-])C(c1ccccc1)c1ccccc1 (centres unmarked) [M015, 2-(benzhydrylsulfinyl)-N-methylacetamide]
intracellular cAMP concentration (NIH-3T3 fibroblasts): increased the intracellular cAMP concentration in a concentration-dependent manner | effect on KCa3.1 currents (KCa3.1 channel [2]; [6]): inhibited | effect on vascular smooth muscle contraction [3]: relaxed

O=C(C[S+]([O-])C(c1ccccc1)c1ccccc1)NCC1CCCO1 (centres unmarked) [M020, 2-(benzhydrylsulfinyl)-N-((tetrahydrofuran-2-yl)methyl) acetamide]
intracellular cAMP concentration (NIH-3T3 fibroblasts): increased the intracellular cAMP concentration in a concentration-dependent manner | effect on KCa3.1 currents (KCa3.1 channel [2]; [6]): inhibited | effect on vascular smooth muscle contraction [3]: relaxed

Clc1ccccc1C(c1ccccc1)(c1ccccc1)n1cccn1 [TRAM-34]
effect on KCa3.1 currents (KCa3.1 channel [2]; [6]): inhibited | effect on single channel currents (KCa3.1 channel [4]; activated by 1 μM Ca2+ and 1-EBIO): inhibited

CC#CCC(C)[C@H](O)/C=C/[C@@H]1[C@H]2C/C(=C/CCCC(=O)O)C[C@H]2C[C@H]1O (some centres unmarked) [iloprost]
intracellular cAMP concentration (NIH-3T3 fibroblasts): increased cAMP concentration | IC50 ([3]; read-out: IC50 of inhibition of rat pulmonary arterial contraction): 39.4 ± 5.1 nM

NC(=O)C[S+]([O-])C(c1ccccc1)c1ccccc1 (centres unmarked) [modafinil, 2-(benzhydrylsulfinyl) acetamide]
KCa3.1 channel phosphorylation (KCa3.1 channel [1]; NIH-3T3 cells, treatment for 5 min): increased KCa3.1 phosphorylation in a concentration-dependent manner | concentration of cAMP compared to treating the cell with 10 μM of forskolin (NIH-3T3 fibroblasts; NIH-3T3 cell, 1 μM of modafinil): 2 times | intracellular cAMP concentration (NIH-3T3 fibroblasts): increased in a concentration-dependent manner | IC50 (KCa3.1 channel [2]): 6.8 ± 0.7 nM | effect on KCa3.1 currents in cells pretreated by H89 (KCa3.1 channel [2]; H89 (10 μM) pretreatment): not inhibited | effect on KCa3.1 currents with PKI14-22 in the pipette solution (KCa3.1 channel [2]; PKI14-22 (10 μM) in pipette solution): not affected | concentration for maximal inhibition of KCa3.1 currents (KCa3.1 channel [2]; [6]): 100.0 ± 5.7 nM | IC50 (mouse aortic rings): 11.9 ± 0.3 nM | slope conductance of single KCa3.1 channel (KCa3.1 channel [4]; linear fit between 50 to -70 mV, in the presence of modafinil): 39.4 pS | open probability of KCa3.1 channels (KCa3.1 channel [4]; [7]): not changed | single channel activity of KCa3.1 channels (KCa3.1 channel [4]; [7]): did not change | IC50 ([3]; read-out: IC50 of relaxation of contracted artery): 10.5 ± 0.4 nM | IC50 ([3]; read-out: IC50 of relaxation of contracted rings): 10.1 ± 0.1 nM | intracellular cAMP concentration ([5]; cultured mouse aortic SMCs exposed for 3 minutes): increased in a concentration-dependent manner | concentration from which intracellular cAMP concentration significantly increased ([5]; primary cultured mouse aortic smooth muscle cells, 3 min, p<0.01): 10 nM
